Results on 31 molecules are retold here after patent US7923004B2 (priority 2006, dated 2011).

Common to all, as to type: cell-based
Series [1] can be described thus: Cell Titer-Glo Cell Viability Assay, genotype 1b cells. To be noted: human, Huh-Luc-Neo (HCV genotype 1b replicon) cells, HCV genotype 1b assays, read-out: Cytotoxicity* (CC50). Here is the method:
Cell Seeding and Compound Treatment: Huh-Luc-Neo (Genotype 1b) or En5-3/Htat2ANeo (Genotype 1a) cells are seeded at 5000-7000/well in an opaque-walled 96 plate with Growth Medium (DMEM phenol red free+PS+2 mM glutamine; 100 ul/well). The compounds to be tested for inhibition of cell viability are added to the experimental wells so as to generate a dose response curve (8-9 concentrations, 10 μl/well at 10× assay concentration) and the cells are then incubated (5% CO2, 37° C.) for 72 h.
Reagent Preparation and Assay: After completion of the incubation period the cell viability measurements are made using the Cell Titre Glo Assay (Promega) according to the manufacturer's recommended protocol. Briefly, the CellTiter-Glo Buffer is thawed and equilibrated to room temperature prior to use. The lyophilized CellTiter-Glo Substrate is also equilibrated to room temperature prior to use. 10 ml of CellTiter-Glo Buffer is then transferred to 1 vial of CellTiter-Glo Substrate and mixed gently with a Vortex. 100 μl of CellTiter-Glo Assay reagent (CellTiter-Glo Buffer+CellTiter-Glo Substrate Mixture) is added to each well. The well contents are mixed for 5 min. on an orbital shaker at room temperature to induce cell lysis and the luminescence is then measured using a luminometer.
For orientation: ATP-based viability assays read luminescence as a measure of living cells.

The subject of series [2] is HCV genotype 1b replicon (Huh-Luc-Neo cells). Nature of the series: HCV Replicon Luciferase Assay. To be noted: Hepatitis C virus, Huh-Luc-Neo cells, genotype 1b, 72 h, read-out: HCV-1b Replicon Inhibition*, Luciferase (EC50). Background: In antiviral work, replicon cells carry a viral genome segment that copies itself.
The test system is the same in series [3]. Nature of the series: HCV Replicon RNA (Taqman) Assay, genotype 1b. To be noted: Hepatitis C virus, Huh-Luc-Neo cells, genotype 1b, HCV RNA, 72 h, read-out: HCV-1b Replicon Inhibition*, Taqman (EC50).

Consider `Cc1ccc(O)c(-c2nn(C)cc2C#Cc2ccc(NC(=O)C3CCCCN3C(=O)C(NC(=O)OC(C)(C)C)c3ccccc3)cc2)c1` (stereo not drawn) [Compound 1], for which the CC50 at 72 h in series [1] is greater than 100000 nM. Also, the results for the EC50 in series [2] and in series [3] were 1000 to 10000 nM and less than 1000 nM, respectively.

As to `Cc1ccc(O)c(-c2nn(C)cc2C#Cc2ccc(NC(=O)[C@@H]3CCCCN3C(=O)[C@@H](Cc3ccccc3)NC(=O)OC(C)(C)C)cc2)c1` [Compound 15], the cytotoxic concentration (CC50) at 72 h in series [1] was greater than 100000 nM. In addition, the concentration for a half-maximal effect (EC50) in series [2] and in series [3] was less than 1000 nM in each case.

In the case of `CC(C)(C)OC(=O)N[C@@H](C(=O)N1CCCC[C@H]1C(=O)Nc1ccc(C#Cc2c[nH]nc2-c2cc(Cl)ccc2O)cc1)c1ccccc1` [Compound 38], the CC50 at 72 h in series [1] is greater than 100000 nM. Besides, the EC50 in series [2] and in series [3] was less than 1000 nM each time.

Turning to `CC(=O)Oc1ccc(C)cc1-c1nn(C)cc1C#Cc1ccc(NC(=O)C2CCCCN2S(=O)(=O)c2cccs2)cc1` (stereo not drawn) [Compound 63], the CC50 at 72 h in series [1] was greater than 100000 nM. In addition, the EC50 in series [2] and in series [3] was 1000 to 10000 nM throughout.

Turning to `Cc1ccc(O)c(-c2nn(C)cc2C#Cc2ccc(NC(=O)[C@@H]3CS(=O)(=O)CCN3C(=O)[C@H](NC(=O)OC(C)(C)C)c3ccccc3)cc2)c1` [Compound 45], the CC50 at 72 h in series [1] was greater than 100000 nM. Further, the EC50 in series [2] and in series [3] was less than 1000 nM throughout.

Take `CC(C)(C)OC(=O)N[C@@H](C(=O)N1CCOCC1C(=O)Nc1ccc(C#Cc2cn(CCO)nc2-c2cc(Cl)ccc2O)cc1)c1ccccc1` (stereo partly drawn) [Compound 30A]: the CC50 at 72 h in series [1] was greater than 100000 nM. Also, the EC50 in series [2] (GETYPE1B) and in series [3] (GETYPE1B) was less than 1000 nM each time.

As for `Cn1cc(C#Cc2ccc(NC(=O)[C@@H]3CCCCN3C(=O)[C@@H](NC(=O)OC(C)(C)C)c3ccsc3)cc2)c(-c2cc(Br)ccc2O)n1` [Example 49], in series [1], the CC50 at 72 h lay within 10000 to 100000 nM. The EC50 in series [2] and in series [3] was less than 1000 nM each time.

On to `Cn1cc(C#Cc2ccc(NC(=O)[C@H]3CCCCN3C(=O)C(NC(=O)OC(C)(C)C)c3ccccc3)cc2)c(-c2cc(Br)ccc2O)n1` (stereo partly drawn) [Example 20], for which the CC50 at 72 h in series [1] was 10000 to 100000 nM. Further, the EC50 in series [2] and in series [3] was less than 1000 nM in each case.

In the case of `Cc1ccc(O)c(-c2nn(C)cc2C#Cc2ccc(NC(=O)C3CCCCN3C(=O)[C@H](Cc3ccccc3)NC(=O)CC3CCCCC3)cc2)c1` (stereo partly drawn) [Compound 9], the CC50 at 72 h in series [1] fell in the range of 10000 to 100000 nM. For the same molecule, the EC50 in series [2] and in series [3] was less than 1000 nM in each case.

On to `COc1ccccc1[C@@H](NC(=O)OC(C)(C)C)C(=O)N1CCOC[C@H]1C(=O)Nc1ccc(C#Cc2cn(C)nc2-c2cc(C#N)ccc2O)cc1` [Compound 22A], for which the half-maximal cytotoxic concentration (CC50) at 72 h in series [1] was greater than 100000 nM. For the same molecule, the EC50 in series [2] (GETYPE1B) and in series [3] (GETYPE1B) was less than 1000 nM throughout.

As to `Cn1cc(C#Cc2ccc(NC(=O)[C@@H]3COCCN3C(=O)[C@H](NC(=O)OC(C)(C)C)c3ccccc3)cc2)c(-c2cc(F)ccc2O)n1` [Example 47], the CC50 at 72 h in series [1] is greater than 100000 nM. The EC50 in series [2] and in series [3] was less than 1000 nM in each case.

For the molecule `Cc1ccc(O)c(-c2nn(C)cc2C#Cc2ccc(NC(=O)[C@@H]3CNCCN3C(=O)[C@H](NC(=O)OC(C)(C)C)c3ccccc3)cc2)c1` [Compound 27A], the CC50 at 72 h in series [1] was in the range of 10000 to 100000 nM. For the same molecule, the EC50 in series [2] (GETYPE1B) and in series [3] (GETYPE1B) was less than 1000 nM each time.

As to `Cc1ccc(O)c(-c2nn(C)cc2C#Cc2ccc(NC(=O)C3CCCCN3C(=O)[C@H](Cc3ccccc3)N(C)C(=O)OC(C)(C)C)cc2)c1` (stereo partly drawn) [Example 19], the CC50 at 72 h in series [1] was 10000 to 100000 nM. The EC50 in series [2] and in series [3] was less than 1000 nM throughout.

On to `Cc1ccc(O)c(-c2nn(C)cc2C#Cc2ccc(NC(=O)[C@@H]3CCCCN3C(=O)[C@@H](NC(=O)OC(C)(C)C)c3ccccc3)cc2)c1` [Example 17], for which the CC50 at 72 h in series [1] was greater than 100000 nM. Also, the EC50 in series [2] and in series [3] was less than 1000 nM in each case.

Take `Cc1ccc(O)c(-c2nn(C)cc2C#Cc2ccc(NC(=O)[C@@H]3CCCCN3C(=O)[C@H](NC(=O)OC(C)(C)C)c3ccccc3)cc2)c1` [Compound 16]: the CC50 at 72 h in series [1] is greater than 100000 nM. The EC50 in series [2] and in series [3] was less than 1000 nM in each case.

On to `Cc1ccc(O)c(-c2nn(C)cc2C#Cc2ccc(NC(=O)[C@@H]3CN(C(=O)C(F)(F)F)CCN3C(=O)[C@H](NC(=O)OC(C)(C)C)c3ccccc3)cc2)c1` [Compound 41], for which the 50% cytotoxic concentration (CC50) at 72 h in series [1] is greater than 100000 nM. Besides, the EC50 in series [2] and in series [3] was less than 1000 nM in each case.

As for `Cc1ccc(O)c(-c2nn(C)cc2C#Cc2ccc(NC(=O)C3CCCCN3C(=O)C(c3ccccc3)N(C)C(=O)OC(C)(C)C)cc2)c1` (stereo not drawn) [Compound 56], in series [1], the CC50 at 72 h was 10000 to 100000 nM. For the same molecule, the EC50 in series [2] and in series [3] was 1000 to 10000 nM in each case.

Consider `Cc1ccc(O)c(-c2nn(C)cc2C#Cc2ccc(NC(=O)C3CCCCN3C(=O)[C@H](Cc3ccccc3)NC(=O)OC(C)(C)C)cc2)c1` (stereo partly drawn) [Compound 14], for which, in series [1], the CC50 at 72 h is greater than 100000 nM. Moreover, the EC50 in series [2] and in series [3] was less than 1000 nM each time.

Regarding `Cc1ccc(O)c(-c2nn(C)cc2C#Cc2ccc(NC(=O)C3CCCCN3C(=O)[C@H](Cc3ccco3)NC(=O)OC(C)(C)C)cc2)c1` (stereo partly drawn) [Compound 12A], the cytotoxic concentration (CC50) at 72 h in series [1] lay within 10000 to 100000 nM. The EC50 in series [2] (GETYPE1B) and in series [3] (GETYPE1B) was less than 1000 nM each time.

For `Cn1cc(C#Cc2ccc(NC(=O)[C@@H]3CCCCN3C(=O)[C@H](NC(=O)OC(C)(C)C)c3cccs3)cc2)c(-c2cc(Br)ccc2O)n1` [Example 48], in series [1], the CC50 at 72 h was greater than 100000 nM. Moreover, the half-maximal effective concentration (EC50) in series [2] and in series [3] was less than 1000 nM each time.

With `Cc1ccc(O)c(-c2nn(C)cc2C#Cc2ccc(NC(=O)[C@H]3CCCCN3C(=O)[C@H](Cc3ccccc3)NC(=O)OC(C)(C)C)cc2)c1` [Compound 2], the CC50 at 72 h in series [1] is greater than 100000 nM. For the same molecule, the EC50 in series [2] and in series [3] was less than 1000 nM throughout.

Turning to `Cn1cc(C#Cc2ccc(NC(=O)[C@@H]3COCCN3C(=O)[C@H](NS(=O)(=O)C3CC3)c3ccccc3)cc2)c(-c2cc(Cl)ccc2O)n1` [Compound 55], the CC50 at 72 h in series [1] was 10000 to 100000 nM. The EC50 in series [2] and in series [3] was less than 1000 nM each time.

For `CC(C)(C)OC(=O)N[C@@H](C(=O)N1CCCC[C@H]1C(=O)Nc1ccc(C#Cc2cn(CCO)nc2-c2cc(Cl)ccc2O)cc1)c1ccccc1` [Compound 39], in series [1], the CC50 at 72 h lay in the range of 10000 to 100000 nM. For the same molecule, the EC50 in series [2] and in series [3] was less than 1000 nM throughout.

On to `Cc1ccc(O)c(-c2nn(C)cc2C#Cc2ccc(NC(=O)C3CCCCN3C(=O)[C@H](Cc3cccc(F)c3)NC(=O)OC(C)(C)C)cc2)c1` (stereo partly drawn) [Compound 27], for which the CC50 at 72 h in series [1] was 10000 to 100000 nM. Besides, the concentration giving a half-maximal response (EC50) in series [2] and in series [3] was less than 1000 nM in each case.

Regarding `Cc1ccc(O)c(-c2nn(C)cc2C#Cc2ccc(NC(=O)C3CCCCN3C(=O)[C@H](Cc3ccccc3)NC(=O)C3CCCCC3)cc2)c1` (stereo partly drawn) [Compound 10], the CC50 at 72 h in series [1] was 10000 to 100000 nM. Besides, the EC50 in series [2] and in series [3] was less than 1000 nM in each case.

As for `CN(C(=O)OC(C)(C)C)[C@@H](Cc1ccccc1)C(=O)N1CCCC[C@@H]1C(=O)Nc1ccc(C#Cc2cn(CCO)nc2-c2cc(Cl)ccc2O)cc1` [Compound 42], in series [1], the CC50 at 72 h lay in the range of 10000 to 100000 nM. The EC50 in series [2] and in series [3] was less than 1000 nM throughout.

As to `Cc1ccc(O)c(-c2nn(C)cc2C#Cc2ccc(NC(=O)C3CCCCN3C(=O)[C@H](Cc3ccc(C(N)=O)cc3)NC(=O)OC(C)(C)C)cc2)c1` (stereo partly drawn) [Compound 24], the CC50 at 72 h in series [1] lay within 10000 to 100000 nM. The concentration giving a half-maximal response (EC50) in series [2] and in series [3] was less than 1000 nM in each case.

Take `Cc1ccc(O)c(-c2nn(C)cc2C#Cc2ccc(NC(=O)C3CCCCN3C(=O)[C@H](Cc3ccccc3)NC(=O)NC(C)(C)C)cc2)c1` (stereo partly drawn) [Example 18]: the CC50 at 72 h in series [1] is greater than 100000 nM. In addition, the EC50 in series [2] and in series [3] was less than 1000 nM throughout.

Consider `Cc1ccc(OS(=O)(=O)C(F)(F)F)c(-c2nn(C)cc2C#Cc2ccc(NC(=O)C3CCCCN3C(=O)[C@H](Cc3ccccc3)NC(=O)OC(C)(C)C)cc2)c1` (stereo partly drawn) [Compound 11], for which the CC50 at 72 h in series [1] was greater than 100000 nM. Further, the EC50 in series [2] and in series [3] was less than 1000 nM each time.

Consider `Cc1ccc(O)c(-c2nn(C)cc2C#Cc2ccc(NC(=O)C3CCCCN3C(=O)[C@H](Cc3ccc(F)cc3)NC(=O)OC(C)(C)C)cc2)c1` (stereo partly drawn) [Compound 5], for which the CC50 at 72 h in series [1] is greater than 100000 nM. The EC50 in series [2] and in series [3] was less than 1000 nM each time.

`Cn1cc(C#Cc2ccc(NC(=O)[C@@H]3CCCCN3C(=O)[C@H](NC(=O)OC(C)(C)C)c3ccccc3)cc2)c(-c2cc(Br)ccc2O)n1` [Compound 22]: the CC50 at 72 h in series [1] was 10000 to 100000 nM. Besides, the half-maximal effective concentration (EC50) in series [2] and in series [3] was less than 1000 nM each time.

A word on the CC50: it is the concentration giving 50% cytotoxicity. Usually EC50 stands for the midpoint of the concentration-response curve.
